Results: patent EP0868914B1, “USE OF A FLAVONOID-CONTAINING EXTRACT OF THE PLANT EUPHORBIA PROSTRATA IN THE MANUFACTURE OF A MEDICAMENT FOR THE TREATMENT OF AN ANORECTIC OR COLONIC DISEASE” (PANACEA BIOTEC LIMITED, priority 1997, dated 1998)
Marks after values point to notes of the source that are not given here.

What was measured:
[1] = system: croton oil-induced oedema in mice ears; assay: Croton oil ear test (oedema), topical; conditions: for Activity Ratio on Molar basis: Indomethacin = 1; for ID50 / ID50 (column head printed: Activity Ratio): croton oil ear test in mice, Italian institute data
[2] = system: Carrageenan-induced Pedal Oedema; assay: Carrageenan-induced pedal oedema in rats (oral extract, intraperitoneal indomethacin); assay type: in vivo; conditions: for Oedema + SEM (%): intraperitoneal
[3] = system: Carrageenan-induced Mice Paw Oedema; assay: Carrageenan-induced paw oedema in mice, topical application; assay type: in vivo; conditions: topical Indomethacin
Description: The duration of action of topical preparation was determined by studying the effects of different concentrations of the drug on oedema over a period of 8 hr. As evident from the Table 3, the peak inhibition was observed after 3-4 hours of carrageenan injection begining at 2 hr for the extract at lower concentrations (0.5-2.0%) and 1 hr. at 4 % concentration.

[4] = system: granulocyte infiltration (MPO activity); assay: Granulocyte infiltration (MPO activity) in the croton oil ear test; assay type: in vivo, mice; conditions: One unit = 1 nMol/min. of tetraguaiacol formed at 25°C
[5] = 1.26µMol, 6 hours after treatment
[6] = 1.26µMol, 18 hours after treatment
[7] = 1.26µMol, 30 hours after treatment

**Q.** What does the source list for `C[C@@H]1O[C@@H](OC[C@H]2O[C@@H](Oc3c(-c4ccc(O)c(O)c4)oc4cc(O)cc(O)c4c3=O)[C@H](O)[C@@H](O)[C@@H]2O)[C@H](O)[C@H](O)[C@H]1O` [Rutin]?
**A.** Activity Ratio on Molar basis [1]: 0.28; ID50 [1]: 282 µg/ear; ID50 (column head printed: Activity Ratio) [1]: 0.462 µmol/ear

**Q.** How did the “Activity Ratio on Molar basis” value [1] turn out when `O=c1cc(-c2ccc(O)cc2)oc2cc(O[C@@H]3O[C@H](CO)[C@@H](O)[C@H](O)[C@H]3O)cc(O)c12` [Apigenin-7-glucoside] was run?
**A.** Its value is 0.32.

**Q.** What about the ID50 [1] of the same molecule?
**A.** Its ID50 is 175 µg/ear.

**Q.** And the “ID50 (column head printed: Activity Ratio)” value [1]?
**A.** The value was 0.404 µmol/ear.

**Q.** `COc1ccc2c(c1)c(CC(=O)O)c(C)n2C(=O)c1ccc(Cl)cc1` [Indomethacin] was tested. Which inhibition of oedema ([2]; 1mg/kg, i.p.) did it give?
**A.** The inhibition of oedema was 74%.

**Q.** What about the “Oedema + SEM (%)” value ([2]; 0.5 mg/Kg, +30 min) of the same molecule?
**A.** Its value is 13.6±4.0%.

**Q.** What about the “Oedema + SEM (%)” value ([2]; 0.5 mg/Kg, +60 min) of the same molecule?
**A.** Its value is 18.9±4.0%.

**Q.** What about the “Oedema + SEM (%)” value ([2]; 0.5 mg/Kg, +120 min) of the same molecule?
**A.** Its value is 28.8±4.2%.

**Q.** What about the “Oedema + SEM (%)” value ([2]; 1.0 mg/Kg, +30 min) of the same molecule?
**A.** Its value is 9.3±2.3%.

**Q.** And the “Oedema + SEM (%)” value ([2]; 1.0 mg/Kg, +60 min)?
**A.** The value was 12.3±2.2%.

**Q.** What about the “Oedema + SEM (%)” value ([2]; 1.0 mg/Kg, +120 min) of the same molecule?
**A.** The value was 16.4±1.6%.

**Q.** What about the “Oedema + SEM (%)” value ([2]; 2.0 mg/Kg, +30 min) of the same molecule?
**A.** Its value is 8.2±1.5%.

**Q.** And the “Oedema + SEM (%)” value ([2]; 2.0 mg/Kg, +60 min)?
**A.** Its value is 12.8±1.8%.

**Q.** What about the “inhibition of Carrageenan-induced Mice Paw Oedema” value ([3]; Dose 1.00 %, +60 m) of the same molecule?
**A.** The value was 18.2** %.

**Q.** And the “inhibition of Carrageenan-induced Mice Paw Oedema” value ([3]; Dose 1.00 %, +120 m)?
**A.** Its value is 24.0** %.

**Q.** What about the “inhibition of Carrageenan-induced Mice Paw Oedema” value ([3]; Dose 1.00 %, +180 m) of the same molecule?
**A.** Its value is 29.0** %.

**Q.** What about the “inhibition of Carrageenan-induced Mice Paw Oedema” value ([3]; Dose 1.00 %, +240 m) of the same molecule?
**A.** The value was 21.2** %.

**Q.** And the “inhibition of Carrageenan-induced Mice Paw Oedema” value ([3]; Dose 1.00 %, +360 m)?
**A.** The value was 9.6** %.

**Q.** What about the “inhibition of Carrageenan-induced Mice Paw Oedema” value ([3]; Dose 1.00 %, +480 m) of the same molecule?
**A.** Its value is 4.6%.

**Q.** What about the “inhibition of Carrageenan-induced Mice Paw Oedema” value ([3]; Dose 2.00 %, +60 m) of the same molecule?
**A.** Its value is 24.2* %.

**Q.** And the “inhibition of Carrageenan-induced Mice Paw Oedema” value ([3]; Dose 2.00 %, +120 m)?
**A.** The value was 26.0* %.

**Q.** And the “inhibition of Carrageenan-induced Mice Paw Oedema” value ([3]; Dose 2.00 %, +180 m)?
**A.** Its value is 41.9*** %.

**Q.** And the “inhibition of Carrageenan-induced Mice Paw Oedema” value ([3]; Dose 2.00 %, +180 m, listed as indomethacin)?
**A.** Its value is 41.9%.

**Q.** What about the “inhibition of Carrageenan-induced Mice Paw Oedema” value ([3]; Dose 2.00 %, +240 m) of the same molecule?
**A.** Its value is 36.4* %.

**Q.** What about the “inhibition of Carrageenan-induced Mice Paw Oedema” value ([3]; Dose 2.00 %, +360 m) of the same molecule?
**A.** The value was 11.5* %.

**Q.** What about the “inhibition of Carrageenan-induced Mice Paw Oedema” value ([3]; Dose 2.00 %, +480 m) of the same molecule?
**A.** Its value is 10.6%.

**Q.** What about the “Effect on granulocyte infiltration (MPO activity)” value (from here on “Effect on granulocyte infiltration”) [4, 5] of the same molecule?
**A.** Its value is 0.0±0.1 unit.

**Q.** What about the “Effect on granulocyte infiltration” value [4, 6] of the same molecule?
**A.** Its value is 10.0±1.6 unit.

**Q.** What about the “Effect on granulocyte infiltration” value [4, 7] of the same molecule?
**A.** Its value is 6.8±3.4 unit.

**Q.** What about the “Effect on Oedema Development” value [1, 5] of the same molecule?
**A.** Its value is 0.0 ± 0.1 mg.

**Q.** And the “Effect on Oedema Development” value [1, 6]?
**A.** The value was 3.1 ± 0.4 mg.

**Q.** And the “Effect on Oedema Development” value [1, 7]?
**A.** Its value is 0.5 ± 0.1 mg.

**Q.** And the “antiinflammatory activity (oedema) in words” value ([1]; 18 hours after treatment)?
**A.** The value was “lose their antiinflammatory activity”.

**Q.** What about the “Activity Ratio on Molar basis” value [1] of the same molecule?
**A.** The value was 1.00.

**Q.** And the ID50 [1]?
**A.** Its ID50 is 46.1 µg/ear.

**Q.** What about the “ID50 (column head printed: Activity Ratio)” value [1] of the same molecule?
**A.** Its value is 0.126 µmol/ear.

**Q.** Which results are given for `O=c1c(O)c(-c2ccc(O)c(O)c2)oc2cc(O)cc(O)c12` [Quercetin]?
**A.** Activity Ratio on Molar basis [1]: 0.65; ID50 [1]: 60.3 µg/ear; ID50 (column head printed: Activity Ratio) [1]: 0.200 µmol/ear

**Q.** How did the “Effect on granulocyte infiltration” value ([4]; 0.41µMol, 6 hours after treatment) turn out when `C[C@]12CCC(=O)C=C1CC[C@@H]1[C@@H]2[C@@H](O)C[C@@]2(C)[C@H]1CC[C@]2(O)C(=O)CO` [Hydrocortisone] was run?
**A.** The value was 0.0±0.2 unit.

**Q.** And the “Effect on granulocyte infiltration” value ([4]; 0.41µMol, 18 hours after treatment)?
**A.** Its value is 6.9±2.1 unit.

**Q.** What about the “Effect on granulocyte infiltration” value ([4]; 0.41µMol, 30 hours after treatment) of the same molecule?
**A.** The value was 8.2±2.4 unit.

**Q.** And the “Effect on Oedema Development” value ([1]; 0.41 µMol, 6 hours after treatment)?
**A.** The value was 0.5 ± 0.2 mg.

**Q.** What about the “Effect on Oedema Development” value ([1]; 0.41 µMol, 18 hours after treatment) of the same molecule?
**A.** The value was 0.7 ± 0.1 mg.

**Q.** What about the “Effect on Oedema Development” value ([1]; 0.41 µMol, 30 hours after treatment) of the same molecule?
**A.** The value was 0.7 ± 0.1 mg.

**Q.** What about the “antiinflammatory activity (oedema) in words” value ([1]; 18 hours after treatment) of the same molecule?
**A.** The value was “maintain their effect to a certain extent”.

**Q.** And the “Activity Ratio on Molar basis” value [1]?
**A.** The value was 14.00.

**Q.** And the ID50 [1]?
**A.** The ID50 was 3.3 µg/ear.

**Q.** What about the “ID50 (column head printed: Activity Ratio)” value [1] of the same molecule?
**A.** Its value is 0.009 µmol/ear.
